# Patent publication US20230332232A1, “COMPOSITIONS AND METHODS FOR DIAGNOSING AND TREATING A DYSTONIA” (Duke University, priority 2020, published 2023)
# Tested on: DYT1 knockin (Tor1a^delGAG/+) murine embryonic fibroblasts (MEFs)
# Assay: Untargeted LC/MS/MS proteomics of EVs from DYT1 MEFs exposed 24 hours to drug, compared with untreated DYT1 (Het) MEFs
# Type: cell-based, mouse
# Description: Methods for isolation and purification of exosomes and extracellular vesicles (EV) were extensively reviewed. Experiments were performed to arrive at a robust and reproducible protocol. The protocol used herein is that set forth in Théry et al, 2006, which is incorporated by reference for it teaching of this protocol. This protocol involves depleting serum-derived EVs from cell culture media by overnight ultracentrifugation and exchanging media for 1% FBS EV-depleted media. Media is then collected from cells following a 24-hour conditioning period and EVs are isolated by 18-hour ultracentrifugation at 100,000 g (FIG. 1A).
# EVs were isolated from media of cultured murine embryonic fibroblasts (MEFs) prepared in-house according to protocols described by Xu 2005 from DYT1 knockin mice (Tor1a^delGAG/+) (Goodchild R E, et al. (2005) Neuron. 48:923-932) and littermate wild-type (WT) controls. The cultured MEFs from the DYT1 mice were exposed for 24 hours to Ritonavir (RTV) while the MEFs from WT mice were exposed to vehicle, ISRIB, or Salubrinal (SAL). The EVs isolated from these WT cells and DYT1 were characterized by untargeted proteomics and RNA-seq to identify differentially expressed proteins and RNAs as candidate biomarkers. Experimenter and Proteomics core staff were blinded to genotype of cell cultures throughout preparation and analysis phases.
# Samples were first normalized to 20 μg and spiked with undigested casein at a total of 40 fmol/μg, 80 fmol/μg, or 160 fmol/μg, then reduced with 10 mM dithiolthreitol for 30 minute at 80° C. and alkylated with 20 mM iodoacetamide for 30 minutes at room temperature. Next, the samples were supplemented with a final concentration of 1.2% phosphoric acid and 741 μL of S-Trap (Protifi) binding buffer (90% MeOH/100 mM […]). Proteins were trapped on the S-Trap, digested using 20 ng/μL sequencing grade trypsin (Promega) for 1 hour at 47° C., and eluted using 50 mM TEAB, followed by 0.2% FA, and lastly using 50% CAN/0.2% FA. All samples were then lyophilized to dryness and resuspended in 40 μL 1% TFA/2% acetonitrile containing 12.5 fmol/μL yeast alcohol dehydrogenase (ADH_YEAST). A QC Pool was created from 3 uL of each sample. All QC Pools were run periodically throughout the acquisition period.
# Quantitative LC/MS/MS was performed on 2 μL of each sample, using a nanoAcquity UPLC system (Waters Corp) coupled to a Thermo Orbitrap Fusion Lumos high resolution accurate mass tandem mass spectrometer (Thermo) via a nanoelectrospray ionization source. Briefly, the sample was first trapped on a Symmetry C18 20 mm×180 μm trapping column (5 μL/min at 99.9/0.1 v/v water/acetonitrile), after which the analytical separation was performed using a 1.8 μm Acquity HSS T3 C18 75 μm×250 mm column (Waters Corp.) with a 90 minute linear gradient of 5% to 30% acetonitrile with 0.1% formic acid at a flow rate of 400 nanoliters/minute (nL/min) with a column temperature of 55° C. Data collection on the Fusion Lumos mass spectrometer was performed in a data-dependent acquisition (DDA) mode of acquisition with a r=120,000 (@ m/z 200) full MS scan from m/z 375-1500 with a target AGC value of 2e5 ions. MS/MS scans were acquired at Rapid scan rate (Ion Trap) with an AGC target of 5e3 ions and a max injection time of 100 ms. The total cycle time for MS and MS/MS scans was 2 seconds. A 20 second dynamic exclusion was employed to increase depth of coverage. The total analysis cycle time for each sample injection was approximately 2 hours.
compound,measurement,setting,value
"CC(C)c1nc(CN(C)C(=O)N[C@H](C(=O)N[C@@H](Cc2ccccc2)C[C@H](O)[C@H](Cc2ccccc2)NC(=O)OCc2cncs2)C(C)C)cs1 [RTV, Ritonavir]",Abs Z Score Sum (Geno + RTV),EV protein Sptan1 (P16546),6.02
same,Abs Z Score Sum (Geno + RTV),EV protein Spthn1 Q62261,6.23
same,Abs Z Score Sum (Geno + RTV),EV protein Srsf7 Q8BL97,5.72
same,Abs Z Score Sum (Geno + RTV),EV protein Ssb (P32067),5.45
same,RTV Direction Opposite dE?,EV protein Ssb (P32067),yes
same,Abs Z Score Sum (Geno + RTV),EV protein Ssbp1 (Q9CYR0),12.21
same,RTV Direction Opposite dE?,EV protein Ssbp1 (Q9CYR0),yes
same,RTV Direction Opposite dE?,EV protein Svep1 (A2A0A0),yes
same,Abs Z Score Sum (Geno + RTV),EV protein Tars (Q9D0R2),9.50
same,Abs Z Score Sum (Geno + RTV),EV protein Tra2b (P62996),6.63
same,RTV Direction Opposite dE?,EV protein Tra2b (P62996),yes
same,Abs Z Score Sum (Geno + RTV),EV protein Ube2n P61089,8.62
same,Abs Z Score Sum (Geno + RTV),EV protein Upf1 (Q9..),9.02
same,Abs Z Score Sum (Geno + RTV),EV protein Usol Q9Z1Z0,12.14
same,Abs Z Score Sum (Geno + RTV),EV protein Vapa (Q9WV55),8.93
same,RTV Direction Opposite dE?,EV protein Vapa (Q9WV55),yes
same,Direction Opposite dE?,EV protein: 26S proteasome non-ATPase regulatory subunit 8,yes
same,Direction Opposite dE?,EV protein: 60S [?] subunit biogenesis protein [?] homolog,yes
same,Direction Opposite dE?,EV protein: 60S ribosomal protein [?],yes
same,Direction Opposite dE?,EV protein: 116 kDa [?] small nuclear ribonucleoprotein component,yes
same,Direction Opposite dE?,EV protein: AP-3 complex subunit [?],yes
same,Direction Opposite dE?,EV protein: ATP-dependent RNA helicase [?],yes
same,Direction Opposite dE?,EV protein: Acyl-protein thioesterase 2,yes
same,Direction Opposite dE?,EV protein: Alpha-crystallin B chain,yes
same,Direction Opposite dE?,EV protein: Anaphase-promoting complex subunit 2,yes
same,Direction Opposite dE?,EV protein: Anaphase-promoting complex subunit 4,yes
same,Direction Opposite dE?,EV protein: Anaphase-promoting complex subunit 5,yes
same,Direction Opposite dE?,EV protein: Calponin-3,yes
same,Direction Opposite dE?,EV protein: Cell [?] cycle protein [?] homolog,yes
same,Direction Opposite dE?,EV protein: Cell division cycle protein 27 homolog,yes
same,Direction Opposite dE?,EV protein: Choline transporter-like protein 1,yes
same,Direction Opposite dE?,EV protein: Coiled-coil domain-containing protein 22,yes
same,Direction Opposite dE?,EV protein: Complement C1q [?] -related protein 3,yes
same,Direction Opposite dE?,EV protein: Cullin-2,yes
same,Direction Opposite dE?,EV protein: Cullin-5,yes
same,Direction Opposite dE?,EV protein: Cullin-7,yes
same,Direction Opposite dE?,EV protein: Cytosolic purine [?] -nucleotidase,yes
same,Direction Opposite dE?,EV protein: DNA [?] (r264),yes
same,Direction Opposite dE?,EV protein: DNA [?] licensing factor MCM4,yes
same,Direction Opposite dE?,EV protein: DNA ligase 1,yes
same,Direction Opposite dE?,EV protein: DNA replication licensing factor MCM5,yes
same,Direction Opposite dE?,EV protein: DNA replication licensing factor [?],yes
same,Direction Opposite dE?,EV protein: DNA-directed RNA polymerase II subunit RPB1,yes
same,Direction Opposite dE?,EV protein: DNA-directed RNA polymerase II subunit RPB2,yes
same,Direction Opposite dE?,EV protein: DNA-directed RNA polymerase II subunit RPB3,yes
same,Direction Opposite dE?,EV protein: DNA-directed RNA polymerase [?] subunit RPA2,yes
same,Direction Opposite dE?,"EV protein: DNA-directed RNA polymerases I, II, and III subunit RPABC3",yes
same,Direction Opposite dE?,"EV protein: DNA-directed RNA polymerases I, II, and III subunit [?]",yes
same,Direction Opposite dE?,EV protein: Developmentally-regulated GTP-binding protein 2,yes
same,Direction Opposite dE?,EV protein: Double-strand-break repair protein rad21 homolog,yes
same,Direction Opposite dE?,EV protein: Dual specificity mitogen-activated protein kinase kinase 4,yes
same,Direction Opposite dE?,EV protein: Dynactin subunit 4,yes
same,Direction Opposite dE?,EV protein: E3 ubiquitin-protein ligase [?],yes
same,Direction Opposite dE?,EV protein: Elongin-B,yes
same,Direction Opposite dE?,EV protein: Extended synaptotagmin-1,yes
same,Direction Opposite dE?,EV protein: Gamma-tubulin complex component 2,yes
same,Direction Opposite dE?,EV protein: General vesicular transport factor p115,yes
same,Direction Opposite dE?,EV protein: Glucose-6-phosphate 1-dehydrogenase [?],yes
same,Direction Opposite dE?,EV protein: Glutathione S-transferase omega-1,yes
same,Direction Opposite dE?,EV protein: Glycosylated lysosomal membrane protein,yes
same,Direction Opposite dE?,EV protein: Golgi reassembly-stacking protein 2,yes
same,Direction Opposite dE?,EV protein: Heterogeneous nuclear ribonucleoprotein H,yes
same,Direction Opposite dE?,EV protein: Histone-arginine methyltransterase CARM1,yes
same,Direction Opposite dE?,EV protein: Immunity-related GTPase family M protein 1,yes
same,Direction Opposite dE?,EV protein: Importin-7,yes
same,Direction Opposite dE?,EV protein: Inositol monophosphate 1,yes
same,Direction Opposite dE?,EV protein: Insulin-like growth factor 1 receptor,yes
same,Direction Opposite dE?,EV protein: Integrin beta- 3,yes
same,Direction Opposite dE?,EV protein: Lupus [?] protein homolog,yes
same,Direction Opposite dE?,EV protein: Lysine-specific histone demethylase [?],yes
same,Direction Opposite dE?,EV protein: Mediator [?] RNA polymerase II transcription subunit 23,yes
same,Direction Opposite dE?,EV protein: Metastasis-associated protein [?] (r222),yes
same,Direction Opposite dE?,EV protein: Metastasis-associated protein [?] (r261),yes
same,Direction Opposite dE?,EV protein: Microtubule-associated protein [?],yes
same,Direction Opposite dE?,EV protein: N-alpha-acetyltransferase 10,yes
same,Direction Opposite dE?,EV protein: Nerine arginine-rich splicing factor [?],yes
same,Direction Opposite dE?,EV protein: Nuclear [?] complex protein [?],yes
same,Direction Opposite dE?,EV protein: Nuclear cap-binding protein subunit 1,yes
same,Direction Opposite dE?,EV protein: Nuclear receptor-binding protein,yes
same,Direction Opposite dE?,EV protein: NudC domain-containing protein 1,yes
same,Direction Opposite dE?,EV protein: Phospholipase D3,yes
same,Direction Opposite dE?,EV protein: Phosphoribosyl pyrophosphate synthase-associated protein 1,yes
same,Direction Opposite dE?,EV protein: Probable ubiquitin carboxyl-terminal hydrolase [?],yes
same,Direction Opposite dE?,EV protein: Proenkephalin-A,yes
same,Direction Opposite dE?,EV protein: Protein O-GlcNAcase,yes
same,Direction Opposite dE?,EV protein: Protein RMD5 homolog A,yes
same,Direction Opposite dE?,EV protein: Protein [?] 14 homolog,yes
same,Direction Opposite dE?,EV protein: Protein [?] (r160),yes
same,Direction Opposite dE?,EV protein: Protein disulfide-isomerase A4,yes
same,Direction Opposite dE?,EV protein: RNA-binding protein [?],yes
same,Direction Opposite dE?,EV protein: Ran-binding protein 10,yes
same,Direction Opposite dE?,EV protein: Ras-related protein Rab-6A,yes
same,Direction Opposite dE?,EV protein: Ribosome biogenesis protein BOP1,yes
same,Direction Opposite dE?,EV protein: Ribosome production factor 2 homolog,yes
same,Direction Opposite dE?,EV protein: Serine threonine-protein phosphatase 2A 56 kDa regulatory subunit gamma isoform,yes
same,Direction Opposite dE?,EV protein: Sorting nexin-1,yes
same,Direction Opposite dE?,EV protein: Splicing factor 3B subunit 4,yes
same,Direction Opposite dE?,EV protein: Structural maintenance of [?] protein 2,yes
same,Direction Opposite dE?,EV protein: Transformer-2 protein homolog beta,yes
same,Direction Opposite dE?,EV protein: Trascriptional activator protein [?] -alpha,yes
same,Direction Opposite dE?,EV protein: Ubiquitin-conjugating enzyme [?],yes
same,Direction Opposite dE?,EV protein: WD repeat-containing protein [?],yes
same,Direction Opposite dE?,EV protein: [?] (r162),yes
same,Direction Opposite dE?,EV protein: [?] -1 (r154),yes
same,Direction Opposite dE?,EV protein: [?] -1 (r232),yes
same,Direction Opposite dE?,EV protein: [?] -associated membrane protein-associated protein A,yes
same,Direction Opposite dE?,EV protein: [?] -promoting complex subunit 1,yes
same,Direction Opposite dE?,EV protein: [?] -related [?] -associated actin-dependent regulator [?] chromatin subfamily A member 5,yes
same,Direction Opposite dE?,EV protein: [?] complex subunit 2,yes
same,Direction Opposite dE?,EV protein: [?] kinase,yes
same,Direction Opposite dE?,EV protein: [?] membrane protein 2,yes
same,Direction Opposite dE?,EV protein: [?] myosin- [?],yes
same,Direction Opposite dE?,EV protein: [?] repeat-containing protein 5A,yes
same,Direction Opposite dE?,EV protein: [?] ubiquitin-protein ligase [?],yes
same,Direction Opposite dE?,"EV protein: [?] von Willebrand factor type A, [?] and pentraxin domain-containing protein 1",yes
same,Direction Opposite dE?,EV protein: p21-activated protein kinase-interacting protein 1,yes
